Drawing on ChEMBL document CHEMBL5291721, “A preclinical secondary pharmacology resource illuminates target-adverse drug reaction associations of marketed drugs” (Nat Commun, 2023), this text covers AC50 for 8 compounds.

Usually AC50 stands for the concentration at which the activity in the assay is half-maximal. A low value points to greater potency.

The target in test [1] is T1, Endothelin receptor type B (Homo sapiens, UniProt P24530).
T1 sequence (P24530 whole entry): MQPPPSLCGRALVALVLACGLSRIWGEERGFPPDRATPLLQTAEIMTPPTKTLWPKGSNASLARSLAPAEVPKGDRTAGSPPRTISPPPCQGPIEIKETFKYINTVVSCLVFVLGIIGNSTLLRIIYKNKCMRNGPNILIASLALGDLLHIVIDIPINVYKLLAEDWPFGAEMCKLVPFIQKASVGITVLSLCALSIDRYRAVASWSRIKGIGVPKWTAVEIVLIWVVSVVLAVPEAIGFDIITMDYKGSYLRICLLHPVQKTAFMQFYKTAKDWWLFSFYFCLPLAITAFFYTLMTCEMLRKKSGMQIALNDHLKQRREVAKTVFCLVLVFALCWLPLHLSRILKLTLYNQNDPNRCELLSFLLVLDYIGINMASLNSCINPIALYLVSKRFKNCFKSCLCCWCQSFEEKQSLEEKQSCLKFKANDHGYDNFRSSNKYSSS

Another test has as its target Melanocortin receptor 4 (Homo sapiens, UniProt P32245).
In the next test the target is Cannabinoid receptor 1 (Homo sapiens, UniProt P21554).
Cannabinoid receptor 1, sequence (P21554 whole entry): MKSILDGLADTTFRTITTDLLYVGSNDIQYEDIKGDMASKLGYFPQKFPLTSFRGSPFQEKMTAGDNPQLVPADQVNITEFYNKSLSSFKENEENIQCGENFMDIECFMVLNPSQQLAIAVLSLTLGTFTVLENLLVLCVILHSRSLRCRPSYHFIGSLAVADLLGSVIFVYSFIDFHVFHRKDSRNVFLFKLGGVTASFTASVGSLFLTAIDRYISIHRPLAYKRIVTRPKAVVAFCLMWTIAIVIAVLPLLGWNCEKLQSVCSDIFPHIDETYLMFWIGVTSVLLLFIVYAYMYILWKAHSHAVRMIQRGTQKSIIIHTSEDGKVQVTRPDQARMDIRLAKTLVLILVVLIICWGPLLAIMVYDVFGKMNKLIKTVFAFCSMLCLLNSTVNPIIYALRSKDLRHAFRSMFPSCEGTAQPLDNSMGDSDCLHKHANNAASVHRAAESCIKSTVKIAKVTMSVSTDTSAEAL
Test [2] concerns the target T2, Peroxisome proliferator-activated receptor gamma (Homo sapiens, UniProt P37231).
T2 sequence (P37231 whole entry): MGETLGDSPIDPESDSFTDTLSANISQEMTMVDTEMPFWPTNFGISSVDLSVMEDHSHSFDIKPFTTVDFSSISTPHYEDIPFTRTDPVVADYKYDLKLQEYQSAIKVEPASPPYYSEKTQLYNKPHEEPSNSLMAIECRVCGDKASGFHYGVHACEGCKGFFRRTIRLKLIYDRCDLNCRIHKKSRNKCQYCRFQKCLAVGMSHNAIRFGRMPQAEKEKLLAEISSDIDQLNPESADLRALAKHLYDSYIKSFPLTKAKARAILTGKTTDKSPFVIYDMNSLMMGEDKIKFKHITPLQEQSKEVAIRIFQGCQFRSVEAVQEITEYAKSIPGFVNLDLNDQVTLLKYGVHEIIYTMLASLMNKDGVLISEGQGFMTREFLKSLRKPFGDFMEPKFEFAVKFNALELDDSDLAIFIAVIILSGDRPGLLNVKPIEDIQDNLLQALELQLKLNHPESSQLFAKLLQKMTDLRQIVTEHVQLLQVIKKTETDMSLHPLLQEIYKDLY
The class given is functional.

The target in another test is T3, Glucocorticoid receptor (Homo sapiens, UniProt P04150).
T3 sequence (P04150 whole entry): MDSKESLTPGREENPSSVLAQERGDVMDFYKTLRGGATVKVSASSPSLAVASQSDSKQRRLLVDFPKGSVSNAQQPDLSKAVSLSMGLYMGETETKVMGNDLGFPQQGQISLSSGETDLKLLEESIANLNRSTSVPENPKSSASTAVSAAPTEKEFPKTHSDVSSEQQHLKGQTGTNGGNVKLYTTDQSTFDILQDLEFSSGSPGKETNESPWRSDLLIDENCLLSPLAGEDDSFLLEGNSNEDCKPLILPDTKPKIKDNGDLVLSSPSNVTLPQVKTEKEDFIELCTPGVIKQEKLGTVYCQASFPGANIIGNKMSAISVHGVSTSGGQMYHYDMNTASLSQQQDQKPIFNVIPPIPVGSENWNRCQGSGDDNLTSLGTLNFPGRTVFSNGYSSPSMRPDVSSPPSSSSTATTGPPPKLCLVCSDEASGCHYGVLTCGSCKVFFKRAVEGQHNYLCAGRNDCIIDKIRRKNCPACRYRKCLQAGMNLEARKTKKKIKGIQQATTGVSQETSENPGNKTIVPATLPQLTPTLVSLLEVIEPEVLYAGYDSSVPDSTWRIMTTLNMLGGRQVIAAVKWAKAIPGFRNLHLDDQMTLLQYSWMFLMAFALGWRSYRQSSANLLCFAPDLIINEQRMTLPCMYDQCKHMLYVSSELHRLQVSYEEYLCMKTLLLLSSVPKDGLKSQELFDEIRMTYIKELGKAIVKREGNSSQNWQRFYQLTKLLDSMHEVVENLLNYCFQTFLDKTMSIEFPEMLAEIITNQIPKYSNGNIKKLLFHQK
The class given is functional.

The target in test [3] is Neurotensin receptor type 1 (Homo sapiens, UniProt P30989).
Neurotensin receptor type 1, sequence (P30989 whole entry): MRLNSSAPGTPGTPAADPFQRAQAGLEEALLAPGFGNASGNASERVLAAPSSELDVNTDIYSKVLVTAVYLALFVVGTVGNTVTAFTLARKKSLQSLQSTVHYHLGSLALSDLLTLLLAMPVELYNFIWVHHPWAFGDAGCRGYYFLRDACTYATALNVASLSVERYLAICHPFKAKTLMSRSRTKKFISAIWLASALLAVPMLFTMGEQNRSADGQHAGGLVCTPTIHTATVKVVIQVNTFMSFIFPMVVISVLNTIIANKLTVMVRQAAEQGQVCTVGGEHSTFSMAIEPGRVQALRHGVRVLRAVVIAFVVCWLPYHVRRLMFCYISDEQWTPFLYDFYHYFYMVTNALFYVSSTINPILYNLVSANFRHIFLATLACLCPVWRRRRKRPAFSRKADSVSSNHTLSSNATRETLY
The target in the next test is T4, B1 bradykinin receptor (Homo sapiens, UniProt P46663).
T4 sequence (P46663 whole entry): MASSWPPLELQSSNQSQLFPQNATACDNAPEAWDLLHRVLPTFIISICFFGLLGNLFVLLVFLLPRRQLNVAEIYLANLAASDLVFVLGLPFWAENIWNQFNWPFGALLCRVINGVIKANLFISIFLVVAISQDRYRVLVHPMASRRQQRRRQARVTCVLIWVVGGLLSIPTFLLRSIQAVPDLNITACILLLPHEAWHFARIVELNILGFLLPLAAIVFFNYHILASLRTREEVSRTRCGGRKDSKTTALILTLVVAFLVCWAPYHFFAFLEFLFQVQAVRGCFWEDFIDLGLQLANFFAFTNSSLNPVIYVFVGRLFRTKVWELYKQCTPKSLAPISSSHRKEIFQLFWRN

For test [4], the target named is T2, Peroxisome proliferator-activated receptor gamma. Format: functional. This is another data set of the same source.
Test [5] addresses 5-hydroxytryptamine receptor 2A (Homo sapiens, UniProt P28223). Format: functional, cell-based.

Structures are written as SMILES. Bounds are passed on as bounds.
Further: assay procedure not described here.

Melanocortin receptor 4, sequence (P32245 whole entry): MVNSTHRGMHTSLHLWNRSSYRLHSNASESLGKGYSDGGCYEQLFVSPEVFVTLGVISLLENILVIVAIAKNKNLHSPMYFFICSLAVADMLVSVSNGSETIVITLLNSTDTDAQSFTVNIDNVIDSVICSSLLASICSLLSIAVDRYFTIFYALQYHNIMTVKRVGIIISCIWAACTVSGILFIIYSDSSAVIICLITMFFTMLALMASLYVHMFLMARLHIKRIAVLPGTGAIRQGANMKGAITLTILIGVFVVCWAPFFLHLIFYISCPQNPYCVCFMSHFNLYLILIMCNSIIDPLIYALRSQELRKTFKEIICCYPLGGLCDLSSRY
5-hydroxytryptamine receptor 2A, sequence (P28223 whole entry): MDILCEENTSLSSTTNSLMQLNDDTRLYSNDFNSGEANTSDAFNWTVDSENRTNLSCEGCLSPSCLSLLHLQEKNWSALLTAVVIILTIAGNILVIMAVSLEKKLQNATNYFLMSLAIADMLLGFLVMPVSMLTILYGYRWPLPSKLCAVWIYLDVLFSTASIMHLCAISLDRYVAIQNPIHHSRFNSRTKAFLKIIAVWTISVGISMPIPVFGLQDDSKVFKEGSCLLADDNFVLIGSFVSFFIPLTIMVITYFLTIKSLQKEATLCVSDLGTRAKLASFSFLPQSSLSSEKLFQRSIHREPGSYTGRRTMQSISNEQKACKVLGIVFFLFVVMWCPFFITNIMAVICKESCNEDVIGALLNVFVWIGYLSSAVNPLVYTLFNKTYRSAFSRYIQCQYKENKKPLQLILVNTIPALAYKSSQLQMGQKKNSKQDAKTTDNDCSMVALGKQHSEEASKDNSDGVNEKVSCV

Turning to `COC(=O)[C@H](c1ccccc1Cl)N1CCc2sccc2C1` [CLOPIDOGREL], the half-maximal activity concentration (AC50) (in test [1]; at Melanocortin receptor 4; at Cannabinoid receptor 1; in [2]; at Glucocorticoid receptor; in [3]) was above 30 µM throughout. The concentration at half-maximal activity (AC50) (at B1 bradykinin receptor; in [4]) was above 30 µM each time.

In the case of `C[C@H]1Oc2cc(cnc2N)-c2c(nn(C)c2C#N)CN(C)C(=O)c2ccc(F)cc21` [LORLATINIB], the half-maximal activity concentration (AC50) (in test [5]; in test [2]; on Glucocorticoid receptor; in test [4]) was above 30 µM throughout.

Consider `O=C1NC(=O)C(c2ccccc2)(c2ccccc2)N1` [PHENYTOIN], for which the AC50 was above 30 µM in test [1]; above 30 µM on Melanocortin receptor 4; above 10 µM on Cannabinoid receptor 1; above 30 µM in test [2]; above 30 µM at Glucocorticoid receptor; above 30 µM in [3]. For the same compound, the concentration at half-maximal activity (AC50) (at B1 bradykinin receptor; in test [4]) was above 30 µM each time.

Turning to `CC(C)C[C@H](CN)CC(=O)O` [PREGABALIN], the half-maximal activity concentration (AC50) (in test [5]; in [1]; at Melanocortin receptor 4; on Cannabinoid receptor 1; in [2]; on Glucocorticoid receptor) was above 30 µM throughout. The concentration at half-maximal activity (AC50) (in test [3]; at B1 bradykinin receptor; in [4]) was above 30 µM throughout.

For `CCOc1cc(CC(=O)N[C@@H](CC(C)C)c2ccccc2N2CCCCC2)ccc1C(=O)O` [REPAGLINIDE], the concentration at half-maximal activity (AC50) (in test [5]; in test [2]; at Glucocorticoid receptor; in [4]) was above 30 µM each time.

Regarding `CCCN(CCC)CCc1cccc2c1CC(=O)N2` [ROPINIROLE], the concentration at half-maximal activity (AC50) is 12 µM in test [5]; above 30 µM in [1]; above 30 µM at Melanocortin receptor 4; above 10 µM at Cannabinoid receptor 1; above 30 µM in [2]; above 30 µM at Glucocorticoid receptor. In addition, the AC50 (in test [3]; on B1 bradykinin receptor; in test [4]) was above 30 µM in each case.

On to `CCCN(CCc1cccs1)[C@H]1CCc2c(O)cccc2C1` [ROTIGOTINE], for which the AC50 in test [5] was 0.46 µM; in [2], above 30 µM; on Glucocorticoid receptor it was above 30 µM; in test [4], above 30 µM.

For `CC(=O)S[C@@H]1CC2=CC(=O)CC[C@]2(C)[C@H]2CC[C@@]3(C)[C@@H](CC[C@@]34CCC(=O)O4)[C@H]12` [SPIRONOLACTONE], the AC50 in test [1] is above 30 µM; at Melanocortin receptor 4, above 30 µM; on Cannabinoid receptor 1 it was above 10 µM; in test [2] it was above 30 µM; on Glucocorticoid receptor it was above 30 µM; in [3], above 30 µM. Besides, the half-maximal activity concentration (AC50) (at B1 bradykinin receptor; in [4]) was above 30 µM in each case.
